From patent US7371745B2, “Bis-transition-metal-chelate probes” (Rutgers, The State University of New Jersey, priority 2002, dated 2008)
Several values for one entry are separate records, joined by “and”; a condition that tells them apart may be missing. Equal values may be shown once.

Key:
[1] = Spectroscopic properties of the fluorochromes; type: physicochemical
(CAP-His6)-DNA^F complex [2] = target: T1, (CAP-His6)-DNA^F complex (Escherichia coli, UniProt P0ACJ8); details: for donor-acceptor distance, R: fluorescein on DNA^F to probe on His6 of CAP-His6
T1 sequence (P0ACJ8 2-210, added parts left off, one chain of several): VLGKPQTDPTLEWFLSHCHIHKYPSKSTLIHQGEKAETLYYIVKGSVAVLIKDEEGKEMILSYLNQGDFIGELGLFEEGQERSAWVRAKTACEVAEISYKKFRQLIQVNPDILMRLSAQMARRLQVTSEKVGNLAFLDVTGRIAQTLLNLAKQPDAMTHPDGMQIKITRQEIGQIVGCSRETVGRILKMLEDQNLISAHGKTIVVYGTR

CAP-His6 = CAP-His6 (Escherichia coli, UniProt P0ACJ8); details: control titration with CAP (no His6 tag)
Chain of CAP-His6 (P0ACJ8 2-210, added parts left off): as the sequence (P0ACJ8 2-210, added parts left off, one chain of several) above
Method: Formation of a complex of the probe with a His6-tagged protein was detected as an increase in fluorescence anisotropy, A, arising from the increase in molecular size and corresponding decrease in rotational dynamics.
Reaction mixtures were titrated with 0-3 μM CAP-His6 (or CAP) by successive addition of 0.5-4 μl aliquots of 2-4 μM CAP-His6 (or CAP) in the same buffer. Fluorescence anisotropy was determined at the start of the titration and 5 min after each successive addition in the titration. All solutions were maintained at 25° C.
Fluorescence measurements were performed using a commercial steady-state fluorescence instrument (QM-1, PTI) equipped with T-format Glan-Thompson polarizers (PTI). […] Slit widths were 10 nm. Fluorescence emission intensities were corrected for background by subtraction of fluorescence emissions intensities for control reactions containing identical concentrations of CAP-His6 or CAP but not containing probe.
Fluorescence anisotropy, A, was calculated using: A=(IVV−GIVH)/(IVV+2GVH) where IVV and IVH are the fluorescent intensities with the excitation polarizer at a vertical position and the emission polarizers at vertical and horizontal positions, respectively, and G is the grating correction factor. […] Equilibrium dissociation constants were calculated using linear regression.

(CAP-His6)-DNA^F complex [3] = target: T1, (CAP-His6)-DNA^F complex; details: control titration with the CAP-DNA^F complex
Method: FRET assays using the probes according to the invention then were performed to verify interactions, to detect a target material, and to measure an intermolecular distance.
Reaction mixtures (200 μl, in 50 μl quartz micro-cuvettes (Starna)) contained 5 nM DNA^F and 50 nM CAP-His6 (or CAP) in buffer C. […] Fluorescence emission was determined at the start of the titration and 5 min after each successive addition in the titration. All solutions were maintained at 25° C.
Fluorescence emission intensities, F, were measured using a commercial steady-state fluorescence instrument (QM-1, PTI) equipped with T-format Glan-Thompson polarizers (PTI) set at 54.7° (“magic angle”).
Data were plotted as E vs. titrant concentration, and binding curves and equilibrium dissociation constants were calculated using non-linear regression (as described in Gunasekera, A. et al., J. Biol. Chem., 267:14,713-14,720 (1992)).

## (Ni^2+-NTA)2-Cy3
[1]
  quantum yield (Q): 0.04
  λmax, em: 565 nm
  λmax, exc: 552 nm
(CAP-His6)-DNA^F complex [2]
  donor-acceptor distance, R: 58 Å
CAP-His6
  specificity: > 95%
(CAP-His6)-DNA^F complex [3]
  specificity: > 95%

## (Ni^2+-NTA)2-Cy5
[1]
  quantum yield (Q): 0.05
  λmax, em: 668 nm
  λmax, exc: 650 nm
(CAP-His6)-DNA^F complex [2]; fluorescein donor on DNA^F, probe as acceptor
  efficiency of FRET at saturation, Esat: 0.45 and 0.25
(CAP-His6)-DNA^F complex [2]
  donor-acceptor distance, R: 53 Å
CAP-His6
  specificity: > 95%
(CAP-His6)-DNA^F complex [3]
  specificity: > 95%
